We go through six molecules from publication PMC8593021, “Biophysical and functional characterization of the human TAS1R2 sweet taste receptor overexpressed in a HEK293S inducible cell line” (Scientific Reports, 2021).

A word on the Kd: it is a measure of binding affinity in units of concentration. Low values mean higher affinity, high ones lower affinity. By EC50 is commonly meant the concentration needed to bring the measured effect to its halfway point. Broadly, the stoichiometry N is a count of units in the complex or per binding partner.

Series [1] deals with T1, hTAS1R2 (Homo sapiens, UniProt Q8TE23).
T1 sequence (Q8TE23 20-839): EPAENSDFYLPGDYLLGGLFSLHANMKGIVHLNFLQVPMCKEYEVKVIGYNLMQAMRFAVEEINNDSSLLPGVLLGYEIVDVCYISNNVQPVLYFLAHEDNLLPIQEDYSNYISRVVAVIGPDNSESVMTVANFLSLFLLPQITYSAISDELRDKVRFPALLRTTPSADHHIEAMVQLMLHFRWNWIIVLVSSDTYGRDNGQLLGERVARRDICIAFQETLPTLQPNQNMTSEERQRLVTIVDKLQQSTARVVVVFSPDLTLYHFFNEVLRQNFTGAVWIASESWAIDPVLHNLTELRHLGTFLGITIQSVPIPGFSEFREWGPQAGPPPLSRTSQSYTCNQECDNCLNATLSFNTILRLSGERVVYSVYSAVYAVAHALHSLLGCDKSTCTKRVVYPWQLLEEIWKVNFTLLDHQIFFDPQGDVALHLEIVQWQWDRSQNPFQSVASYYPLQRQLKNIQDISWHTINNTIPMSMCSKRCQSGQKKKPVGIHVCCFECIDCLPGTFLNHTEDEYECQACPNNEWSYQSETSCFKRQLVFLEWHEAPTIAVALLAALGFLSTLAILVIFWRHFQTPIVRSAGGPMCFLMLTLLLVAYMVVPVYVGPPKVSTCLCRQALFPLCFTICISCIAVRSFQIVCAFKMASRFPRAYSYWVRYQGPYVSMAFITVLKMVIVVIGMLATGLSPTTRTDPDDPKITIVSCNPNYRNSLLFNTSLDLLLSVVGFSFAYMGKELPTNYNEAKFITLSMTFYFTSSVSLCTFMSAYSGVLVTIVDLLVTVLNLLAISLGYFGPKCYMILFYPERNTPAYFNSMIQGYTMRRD
In words: Intrinsic tryptophan fluorescence ligand binding to purified detergent-solubilized hTAS1R2. Details: made in house. Conditions: purified FLAG-tagged hTAS1R2 0.10 µM in PBS, 0.1% LMNG, 20 °C; λex 280 nm, λem 340 nm. Here is the method: Intrinsic fluorescence spectra were recorded with a Cary Eclipse spectrofluorimeter (Varian Instruments, Les Ulis, France) equipped with a Peltier temperature control unit. The temperature was maintained at 20 °C. FLAG-tagged hTAS1R2 protein (0.10 µM in PBS, 0.1% LMNG buffer) was excited at 280 nm, and the emission spectra were recorded from 300 to 400 nm, with a 10 nm bandwidth for both excitation and emission in the presence and absence of ligands. The sweetener solutions were freshly prepared in PBS-0.1% LMNG buffer. Successive aliquots of ligand solutions were added to 400 µL of the FLAG-tagged hTAS1R2 solution. […] The fluorescence measurements were corrected for bleaching and nonspecific buffer quenching. The dissociation constants (Kd) were calculated from a plot of the fluorescence intensity measured at the maximum emission wavelength (340 nm) versus the concentration of total ligand obtained with a standard nonlinear regression method using SigmaPlot software (Systat Software Inc., San Jose, CA, USA). The reported Kd values are the average of triplicate measurements performed on at least three independently purified protein samples.

In another series the target is T2, hTAS1R3 (Homo sapiens, UniProt Q7RTX0).
T2 construct: expressed in transfected cells; host or cells: HEK293T cells stably expressing Gα16gust44, transiently transfected
T2 sequence (Q7RTX0 21-852): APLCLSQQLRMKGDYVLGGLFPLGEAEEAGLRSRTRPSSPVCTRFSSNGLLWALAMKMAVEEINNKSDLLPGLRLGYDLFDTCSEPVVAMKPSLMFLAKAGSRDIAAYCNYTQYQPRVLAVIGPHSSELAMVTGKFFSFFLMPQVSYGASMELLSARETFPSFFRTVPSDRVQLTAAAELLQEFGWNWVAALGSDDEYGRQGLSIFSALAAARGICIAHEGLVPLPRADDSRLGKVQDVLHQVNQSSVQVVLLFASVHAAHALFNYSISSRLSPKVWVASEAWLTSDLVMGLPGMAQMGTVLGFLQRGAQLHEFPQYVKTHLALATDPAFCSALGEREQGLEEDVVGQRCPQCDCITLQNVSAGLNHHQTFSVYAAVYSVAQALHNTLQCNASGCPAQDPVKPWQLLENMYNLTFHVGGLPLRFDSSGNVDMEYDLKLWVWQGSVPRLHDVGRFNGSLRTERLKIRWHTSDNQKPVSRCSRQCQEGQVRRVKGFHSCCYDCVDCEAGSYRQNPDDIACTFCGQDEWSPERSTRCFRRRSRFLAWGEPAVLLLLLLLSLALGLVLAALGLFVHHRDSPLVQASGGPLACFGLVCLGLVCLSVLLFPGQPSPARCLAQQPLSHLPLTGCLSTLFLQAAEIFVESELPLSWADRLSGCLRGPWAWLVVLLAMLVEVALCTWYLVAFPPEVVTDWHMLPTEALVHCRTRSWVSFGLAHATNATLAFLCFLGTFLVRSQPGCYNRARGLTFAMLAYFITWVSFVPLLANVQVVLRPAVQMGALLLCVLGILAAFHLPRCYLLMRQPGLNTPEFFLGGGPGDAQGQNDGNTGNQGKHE
The series is described as follows: Calcium assay (GCaMP6S) in HEK293T-Gα16gust44 cells transfected with hTAS1R3-FLAG alone. In kind it is cell-based. As to conditions: HEK293T-Gα16gust44 cells transiently transfected with GCaMP6S and hTAS1R3-FLAG alone. The source says: (§1) We used a calcium imaging assay to establish dose–response curves for the sweet taste receptor hTAS1R2/hTAS1R3 and determine EC50 values for the sweet stimuli previously tested in spectrofluorimetric experiments. We cloned the cDNAs coding hTAS1R2 and hTAS1R3 subunits into pcDNA6 and pcDNA4 expression plasmids, respectively, and we added FLAG tag to C-terminus of each construct to measure protein expression level by immunocytochemistry as described previously. HEK293T cells stably transfected with Gα16gust44 were seeded at a density of 0.35 × 10^6 cells per well into 96-well black walled, clear bottom microtiter plates (Falcon) in high-glucose DMEM supplemented with 2 mM GlutaMAX, 10% dialyzed foetal bovine serum, penicillin/streptomycin and G418 (400 µg/mL) at 37 °C and 6.3% CO2, in a humidified atmosphere. After 48 h, the cells were transiently transfected with each TAS1R subunit (60 ng/well for each plasmid) and plasmid pGP-CMV-GCaMP6S (Addgene #40753, 50 ng per well) coding for a green fluorescent protein-based calcium indicator, using Fugene HD (0.4 µL/well). After a further 24 h incubation, the cells were washed twice with buffer C1 and then stimulated with sweet tasting compounds. After excitation at 488 nm, calcium responses were recorded at 510 nm using a Molecular Devices FlexStation 3 system. Acquisition was made simultaneously from 8 wells corresponding to the range of taste solutions. We averaged the responses of 18 wells receiving the same stimulus one three independent experiments. We subtracted the mean calcium traces of mock-transfected cells stimulated with the same concentration of stimulus. Plots of the fluorescence variation amplitude versus concentration were fitted by four-parameter logistic nonlinear regression allowing us to calculate the EC50 values of activation.

The target of series [2] is T1, hTAS1R2. In words: Calcium assay (GCaMP6S) in HEK293T-Gα16gust44 cells transfected with hTAS1R2-FLAG alone. As to conditions: HEK293T-Gα16gust44 cells transiently transfected with GCaMP6S and hTAS1R2-FLAG alone. In kind it is cell-based.
From the text: as §1, with “After a further 24 h incubation, the cells were washed twice with buffer C1 and then stimulated with sweet tasting compounds.” left out, “Acquisition was made simultaneously from 8 wells corresponding to the range of taste solutions. We averaged the responses of 18 wells receiving the same stimulus one three independent experiments. We subtracted the mean calcium traces of mock-transfected cells stimulated with the same concentration of stimulus.” left out

A further series deals with T3, hTAS1R2/hTAS1R3 (Homo sapiens, UniProt Q7RTX0+Q8TE23).
T3 construct: expressed in transfected cells; host or cells: HEK293T cells stably expressing Gα16gust44, transiently transfected
T3 sequence (Q8TE23 20-839): T1 sequence (Q8TE23 20-839)
T3 sequence (Q7RTX0 21-852): T2 sequence (Q7RTX0 21-852)
The series is described as follows: Calcium assay (GCaMP6S) in HEK293T-Gα16gust44 cells transfected with hTAS1R2-FLAG and hTAS1R3-FLAG. The format is cell-based. Conditions: HEK293T-Gα16gust44 cells transiently transfected with GCaMP6S.
From the text: as §1

Series [3] deals with the molecule itself. The series is described as follows: SEC-MALS; pooled gel filtration peak 4 (fractions 14-16) of FLAG-tagged hTAS1R2; Superdex 200 Increase 3.2/300, PBS with 0.1% LMNG, pH 7.3, 0.1 mL/min; MALS, RI and UV (280 nm) detectors; protein-detergent complexes. (In general: SEC sorts molecules by how far they enter the pores of the column.)

Molecule `C=C(C)C1CC=C(/C=N/O)CC1` (stereo in doubt) [Perillartine, perillartine] had a dissociation constant (Kd) on hTAS1R2 [1] of 373 ± 110 µM. Further, the “EC50 hTAS1R3” value on hTAS1R3 is listed as “n.r”. Besides, the EC50 on hTAS1R2 [2] was determined as 61 ± 13 µM; on hTAS1R2/hTAS1R3, 2.54 ± 0.48 µM.

`CC1=CC(=O)NS(=O)(=O)O1` [Acesulfame-K, acesulfame-K] came in with a dissociation constant Kd at hTAS1R2 [1] of 164 ± 53 µM. For the same molecule, the “EC50 hTAS1R3” value at hTAS1R3 was “n.r”. In addition, the EC50 at hTAS1R2/hTAS1R3 worked out at 213 ± 59 µM.

Take `O=S(=O)(O)NC1CCCCC1` [Cyclamate-Na, cyclamate-Na]: at hTAS1R3, the “EC50 hTAS1R3” value was “n.r”. The EC50 on hTAS1R2/hTAS1R3 was determined as 767 ± 83 µM.

In the case of `COC(=O)[C@H](Cc1ccccc1)NC(=O)[C@H](CC(=O)O)NCCC(C)(C)C` [Neotame, neotame], the Kd at hTAS1R2 [1] came out at 2.78 ± 0.69 µM. On hTAS1R3, the “EC50 hTAS1R3” value is “n.r”. Moreover, the EC50 at hTAS1R2/hTAS1R3 is 0.9 ± 0.09 µM.

Turning to `OC[C@H]1O[C@H](O[C@]2(CCl)O[C@H](CCl)[C@@H](O)[C@@H]2O)[C@H](O)[C@@H](O)[C@H]1Cl` [Sucralose, sucralose], the Kd on hTAS1R2 [1] turned out to be 29 ± 8 µM. On hTAS1R3, the “EC50 hTAS1R3” value is on record as “n.r”. For the same molecule, the EC50 at hTAS1R2/hTAS1R3 was 36 ± 2 µM.

B1: FLAG-tagged human TAS1R2 (taste receptor type 1, member 2) (receptor, UniProt Q8TE23 20-839, looked up)
chain: T1 sequence (Q8TE23 20-839)
notes: human TAS1R2 (taste receptor type 1, member 2), UniProtKB Q8TE23, full-length protein from a codon-optimised synthetic gene; the purified protein is still detected and captured by anti-FLAG M2; Theoretical mass of FLAG-tagged hTAS1R2 printed as 96.2 kDa; In LMNG detergent; also called hTAS1R2; FLAG-hTAS1R2; not shown: FLAG, N-terminal, kept
With B1, the “stoichiometry N” value in series [3] came out at 2.
